pEC50: −log10 of the molar value.
Key:
[1] = Inhibition of HCV genotype 3a NS5B polymerase infected in human HuH7 replicon cells by luciferase reporter gene assay
[2] = Inhibition of HCV genotype 1a NS5A polymerase infected in human HuH7 replicon cells by luciferase reporter gene assay
[3] = Inhibition of HCV genotype 1b NS5B polymerase infected in human HuH7 replicon cells by luciferase reporter gene assay
[4] = Inhibition of HCV genotype 4a NS5B polymerase infected in human HuH7 replicon cells by luciferase reporter gene assay
[5] = Inhibition of HCV genotype 2a NS5B polymerase infected in human HuH7 replicon cells by luciferase reporter gene assay
[6] = Inhibition of NS5B polymerase in HCV genotype 1b infected human HuH7 replicon cells assessed as reduction in viral RNA level after 3 days by RT-PCR assay

Compound | pEC50 [1] | pEC50 [2] | pEC50 [3] | pEC50 [4] | pEC50 [5] | pEC50 [6]
CNC(=O)c1c(-c2ccc(F)cc2)oc2cc3c(cc12)[C@H](C)O[C@H](CO)CN3S(C)(=O)=O | 8.22 | 8.05 | 8.52 | 8.05 | 7.92 | 
CNC(=O)c1c(-c2ccc(F)cc2)oc2cc(N(CCO)S(C)(=O)=O)c(C3CC3)cc12 [HCV 796] | 7.72 | 7.62 | 7.92 | 7.68 | 7.14 | 8.05
